Assay results reported in patent publication US20220387369A1, “Prooxidative chain-transfer agents for use in the treatment of malignant tumour or infectious diseases” (Universitätsmedizin der Johannes Gutenberg-Universität Mainz, priority 2019, published 2022).

Tests used:
[1] = test system: Drosophila melanogaster; test: Ultrastructural effects in fruit flies in vivo (electron microscopy); conditions: 1 mM in the feed, electron micrographs
Method: Male Drosophila melanogaster (strain Oregon-R) were maintained at 25° C. in plastic vials covered with air-permeable lids and received standard food (50 g/L refined household sugar, 50 g/L baker's yeast, and 20 g/L agar powder). The medium was boiled under stirring, adding the following supplements at approximately 70° C.: 3 g/L methylparabene (dissolved in ethanol, final concentration: 0.15%), 3 mL/L propionic acid and the appropriate amount of n-dodecyl thiol (12-SH) dissolved in ethanol (final concentration: 0.1%). Synchronized male flies were transferred into new vials and scored for survival every other day. Treatment started on day 2 of adulthood. Electron microscopy. Flies harvested after 50 days of treatment were cryofixed by plunge freezing, cut into head, thorax and abdomen before chemical fixation for 90 min with 3% glutaraldehyde and 3% formaldehyde in PBS. The tissues were washed, fixed with 2% OsO4, washed again, dehydrated with rising concentrations of ethanol, transitionally stabilized with propylene oxide and embedded into epoxy resin essentially as described (Bozzola and Russel, Electron Microscopy: Jones and Bartlett Publishers, Inc., Sudbury, M A, 1999). The polymerized blocks were mounted, trimmed, and sectioned in an ultramicrotome before transfer onto electron microscopy grids. Images were acquired under standard conditions in a Tecnai Transmission Electron Microscope (FEI Company, Hillsboro, Oreg., USA).

[2] = test system: Primary human fibroblasts; test: 8-Isoprostane release from diploid human fibroblasts; assay type: cell-based; conditions: 100 μM, medium with 10% fetal calf serum, time course, FIG. 3C (a)
Method: (§1) (FIG. 3A) Normal human diploid fibroblasts were cultivated under standard conditions stimulating cell division, i.e. with 10% serum in the medium. Specifically, the cells were grown in high-glucose DMEM (Dulbecco's Modified Eagle's Medium) supplemented with 10% heat-inactivated FCS (fetal calf serum), 1× non-essential amino acid (NEAA) supplement, 1 mM pyruvate, 100 mg/L streptomycin and 100 U/mL penicillin. For cultivation, the cells were maintained at 37° C. in a humidified atmosphere containing 5% CO2. The cells were generally passaged on reaching approximately 90% confluence and were seeded, after counting of the PDLs (population doublings), in new dishes at a density of 10^6 cells per dish in 100 mm dishes, or at a density of 10^4 cells per well in 96-well plates. Cells were used for experiments at PDL 25-30. All cell culture reagents were from Invitrogen, Carlsbad, Calif., USA.
(FIG. 3C) 8-Isoprostanes. Cells cultivated in 96-well plates for 24 h were administered with 100 μM n-dodecyl thiol (12-SH) for the indicated time before removing the cell culture supernatant for 8-isoprostane analysis. 8-Isoprostane analysis was achieved by a commercial enzyme immunoassay (Cayman Chemicals, Ann Arbor, Mich., USA), which was conducted as detailed in the manufacturers instructions.

[3] = test system: Native lipid membranes from rat brain; test: Lipid peroxidation (malondialdehyde/TBARS) in native rat brain membranes; assay type: biochemical
Method: Native biological membranes from adult rat brain were prepared by differential centrifugation as described (Moosmann and Behl, Proc Nati Acad Sci USA 96:8867-8872, 1999). Samples containing 0.5 mg/ml total protein (as per bicinchoninic acid assay from Pierce, Rockford, Ill., USA) were solubilized by brief sonication in PBS (phosphate-buffered saline) and administered with the indicated concentrations of n-dodecyl thiol (12-SH; from Sigma-Aldrich, St. Louis, Mo., USA) dissolved in ethanol (final concentration: 0.1%). Subsequently, 10 μM Fe^2+/200 μM ascorbate were added as radical-initiating mix; controls received vehicle (water). After the indicated time, the reaction was stopped by adding 2.5 volumes of 5% trichloroacetic acid in 1 M acetic acid, followed by centrifugation (10,000 g for 10 min). Subsequently, thiobarbituric acid-reactive substances (TBARS) as marker of lipid peroxidation were quantified fluorimetrically as detailed before (Hajieva et al., J Neurochem 110:118-132, 2009).

[4] = test system: HT22 cells; test: Cytotoxic activity in cultivated HT22 cells (MTT), normoxic and hypoxic; assay type: cell-based, mouse; conditions: 1 day or 3 days, 20% O2 vs 1% O2, FIG. 2B
Method: (FIG. 2A) HT22 are a widely used, immortalized neuronal cell line that has been generated by transforming mouse neuronal tissue with the oncogenic SV40 T-antigen (Morimoto and Koshland, Neuron 5:875-880, 1990). HT22 cells were cultivated in high-glucose DMEM (Dulbecco's Modified Eagle's Medium) supplemented with 10% heat-inactivated FCS (fetal calf serum), 1 mM pyruvate, 100 mg/L streptomycin and 100 U/mL penicillin. For routine culture, cells were grown in 100 mm dishes at 37° C. in a humidified atmosphere containing 5% CO2. They were passaged three times per week on reaching approximately 90% confluence and splitted 1:10. All cell culture reagents were from Invitrogen, Carlsbad, Calif., USA.
For cell survival experiments, HT22 cells were seeded into 96-well plates at a density of ˜5000 cells per well in 0.1 mL medium. After 24 h cultivation, the cells were administered with the indicated concentrations of the tested compounds (n-octyl thiol (8-SH) or n-dodecyl thiol (12-SH)) dissolved in ethanol (final concentration: 1%). After 1 day or 3 days of incubation as indicated, cell survival was analyzed by colorimetric MTT reduction tests (MTT is 3-(4,5-dimethylthiazol-2-yl-)-2,5 diphenyltetrazolium bromide) which were performed exactly as described (Hajieva et al., J Neurochem 110:118-132, 2009). […]

[5] = test system: C. elegans; test: Toxicity (survival) in nematodes in vivo; parameters: species or system Caenorhabditis elegans; conditions: 0.5 mM in minimum diet with varying amounts of coliform bacteria, oral, FIG. 4 (a)
Method: Caenorhabditis elegans N2 Bristol strain animals were expanded and cultivated at 20° C. on nematode growth medium (NGM) plates in the presence of Escherichia coli strain HB101 as food source following standard protocols (Mocko et al., Neurobiol Dis 40:120-129, 2010). For the toxicity experiments, synchronized adult worms aged 2 days were maintained in liquid culture medium (S-Basal medium supplemented with 5 mg/L cholesterol, 100 mg/L streptomycin, 100 mg/L fluorodeoxyuridine (FUDR)) to which varying amounts of Escherichia coli were added (measured as optical density (OD) at 600 nm wavelength) as described (Mair et al., PLoS One 4:e4535, 2009). Worms distributed in 48-well plates were administered with 500 μM n-dodecyl thiol (12-SH) dissolved in ethanol (final concentration: 1%) and analyzed, after the indicated time, for survival by visual inspection and mechanical stimulation (nose-touch assay) as detailed (Mocko et al., Neurobiol Dis 40:120-129, 2010).

[6] = test system: Primary human fibroblasts; test: Protein polyubiquitination in diploid human fibroblasts (Western blot); assay type: cell-based; conditions: 500 μM, medium with 10% fetal calf serum, time course, FIG. 3C (b)
Method: as §1
Protein polyubiquitination. Cells cultivated in 100 mm dishes for 24 h were administered with 500 μM n-dodecyl thiol (12-SH) for the indicated time before harvesting of the cells in lysis buffer (50 mM Tris-HCl, pH 7.4, 10% sucrose, 1 mM EDTA, 1 mM EGTA, 1 mM Na3VO4, 1 mM NaF, 1× protease inhibitor cocktail from Sigma-Aldrich, St. Louis, Mo., USA) followed by brief sonication and denaturation at 95° C. for 2 min. […] Densitometric quantification was performed using automated image analysis software.

[7] = test system: C. elegans; test: 8-Isoprostane in homogenates of treated nematodes; assay type: in vivo, Caenorhabditis elegans; conditions: 0.1 mM or 0.5 mM, FIG. 4 (b)
Method: 8-Isoprostanes. Synchronized, 4-day-old adult worms distributed in cell culture flasks were administered with the indicated concentration of n-dodecyl thiol (12-SH) dissolved in ethanol (final concentration: 1%) and cultivated for 6 h or 48 has indicated. The worms were collected by centrifugation at 1200 g, washed twice with S-Basal medium, and once with DMEM medium containing 100 μM butylated hydroxytoluene (BHT). The worms were then homogenized in DMEM/BHT by sonication (3×20 s at 30 kHz on ice). Equal amounts of protein of the resulting homogenate (as per bicinchoninic acid assay from Pierce, Rockford, Ill., USA) were probed for the presence of 8-isoprostane by a commercial enzyme immunoassay (Cayman Chemicals, Ann Arbor, Mich., USA) following the manufacturer's instructions.

For `CCCCCCCCCCCCS` [n-dodecylthiol], the myofibrillar structure ([1]; FIG. 5A) was “intact”, the “ultrastructural effect on muscle mitochondria” value ([1]; FIG. 5A) was “intramitochondrial, spiral multilamellar lesions” and the “ultrastructural lesions in the nervous system (a, b) and photoreceptor cells (c)” value ([1]; FIG. 5B) was “spiral multilamellar lesions of mitochondrial origin”. For the same compound, the “other damage phenotype, nervous system (b)” value ([1]; FIG. 5B (b)) was “vacuolization and electron-dense aggregation”, the “other damage phenotype, photoreceptor cells (c)” value ([1]; FIG. 5B (c)) was “bright lipofuscin accumulation” and the “concentration of released lipid peroxidation marker 8-isoprostane” value [2] was “increased significantly within a few hours”. For the same compound, the “extent of lipid peroxidation (as malondialdehyde)” value ([3]; absence of any radical initiation ("dead membranes"), FIG. 1 (a)) was “absence of any effect”, the “extent of lipid peroxidation (as malondialdehyde)” value ([3]; low level of free radical initiator (iron/ascorbate) added, FIG. 1 (b)) was “massively amplified” and the “cytotoxic effectiveness under hypoxic versus normal oxygen conditions” value [4] was “not compromised by hypoxic conditions”. The “worms killed / toxicity in vivo” value [5] was “led to death after a few days”, the “amount of polyubiquitinated proteins in the cell (marker of protein damage)” value [6] was “increased significantly within a few hours” and the “concentration of lipid peroxidation marker 8-isoprostane in worm homogenates” value [7] was “increased to a constant maximum after only 6 h”.
